Measured values as given in US8383637B2, “2-amino-quinazoline derivatives useful as inhibitors of β-secretase (BACE)” (Jansssen Pharmaceutica N.V., priority 2004, dated 2013).

Biological target: T1, β-secretase(BACE) (Homo sapiens, UniProt P56817)
T1 construct: purchased Panvera
Assay: BACE FS1% Inhibition Assay
Assay type: biochemical
Conditions: FS1 substrate
Method: BACE FS1% Inhibition Assay The following reagents were used in this assay: sodium acetate, PEG8000 (Sigma), DMSO, HEPES, FS1 substrate [[…]] […] The FS1-substrate stock solution was prepared in DMSO as a 10 mg/mL solution. The FS1-substrate working solution was prepared by diluting the 10 mg/mL stock solution with substrate assay buffer to a final concentration of 300 μg/mL. The β-secretase (BACE) working solution was prepared by diluting a 0.83 mg/mL BACE stock solution with enzyme assay buffer to a final concentration of 4 μg/mL. Test compounds were dissolved in DMSO to 10 mM. […] The screening procedure for this assay was as follows: 15 μL of BACE working solution was pipetted into each well of a 96-well plate. To each well was then pipetted 2 μL of test compound at the selected concentration. Test compound and BACE were then mixed with a pipettor and incubated for 20 min at room temperature. To each well was then added 10 μL of the FS1 substrate working solution. The plates were then incubated for 1 hour at room temperature. […] The procedure for the blank was as follows. 15 μL of assay buffer was pipetted into each well to be used as a blank control. To each well was then added 2 μL of vehicle and 10 μL of FS1-substrate working solution. The plates were then incubated for 1 hour at room temperature. […] The procedure for the positive control was as follows: 15 μL of BACE working solution was pipetted into each well to be used as a positive control. To each well was then pipetted 2 μL of vehicle. Vehicle and BACE were then mixed with a pipettor and incubated for 20 min at room temperature. To each well was then added 10 μL of the FS1 substrate working solution. The plates were then incubated for 1 hour at room temperature. […] For test compounds, % inhibition was determined at each concentration as follows: [formula]

T1 sequence (P56817 46-501): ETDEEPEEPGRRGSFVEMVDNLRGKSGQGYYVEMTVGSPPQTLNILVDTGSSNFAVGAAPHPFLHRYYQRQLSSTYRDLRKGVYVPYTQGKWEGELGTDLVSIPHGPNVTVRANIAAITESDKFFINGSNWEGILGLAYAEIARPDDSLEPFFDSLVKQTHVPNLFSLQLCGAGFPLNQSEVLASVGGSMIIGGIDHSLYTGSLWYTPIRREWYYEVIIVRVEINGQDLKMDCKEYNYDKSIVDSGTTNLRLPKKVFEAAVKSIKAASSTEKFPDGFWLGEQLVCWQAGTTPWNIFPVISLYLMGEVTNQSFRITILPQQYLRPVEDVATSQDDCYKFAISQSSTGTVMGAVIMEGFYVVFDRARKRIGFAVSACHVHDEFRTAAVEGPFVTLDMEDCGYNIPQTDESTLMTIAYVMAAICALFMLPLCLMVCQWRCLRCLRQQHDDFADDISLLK

| SMILES | % Inhibition (FS) 0.3 μM (0.3 μM test compound) [%] | % Inhibition (FS) 1 μM (1 μM test compound) [%] | % Inhibition (FS) 3 μM (3 μM test compound) [%] | other results |
| --- | --- | --- | --- | --- |
| NC1=Nc2ccc(Oc3ccccc3)cc2CN1CC1CCN(C(=O)C23CC4CC(CC(C4)C2)C3)CC1 [Compound 527] | <30 | <30 | 51 | – |
| CCCCC(CC)C(=O)NCCN1Cc2cc(-c3ccccc3Cl)ccc2N=C1N (stereo not drawn) [Compound 655] | 45 | 79 | 104 | – |
| CN(C(=O)CCC(C1CCCCC1)N1Cc2cc(Oc3ccccc3)ccc2N=C1N)C1CCC(C(=O)OCc2ccccc2)CC1 (stereo not drawn) [Compound 760] | – | – | – | % Inhibition (FS) (0.3 μM test compound): <30%; % Inhibition (FS) (1 μM test compound): 44%; % Inhibition (FS) (3 μM test compound): 89% |
| CCCC=Cc1ccc2c(c1)CN(CCNC(=O)Cc1ccccc1)C(N)=N2 [Compound 596] | <30 | <30 | <30 | – |
| COc1ccccc1Oc1ccc2c(c1)CN(Cc1cccc(C(=O)N(C)C3CCCCC3)c1)C(N)=N2 [Compound 232] | <30 | <30 | 31 | – |
| CC(CC(=O)NCCN1Cc2cc(-c3ccccc3)ccc2N=C1N)C(F)(F)F (stereo not drawn) [Compound 685] | – | – | – | % Inhibition (FS) (0.3 μM test compound): 50%; % Inhibition (FS) (1 μM test compound): 90%; % Inhibition (FS) (3 μM test compound): 101% |
| CN(C(=O)c1cccc(CN2Cc3cc([S+]([O-])c4ccccc4)ccc3N=C2N)c1)C1CCCCC1 (stereo not drawn) [Compound 549] | <30 | 30 | 71 | – |
| CCc1ccccc1Sc1ccc2c(c1)CN(Cc1cccc(C(=O)N(C)C3CCCCC3)c1)C(N)=N2 [Compound 406] | <30 | <30 | 50 | – |
| NC1=Nc2ccc(-c3ccc4ccccc4c3)cc2CN1CCNC(=O)C1CCCC1 [Compound 664] | – | – | – | % Inhibition (FS) (0.3 μM test compound): <30%; % Inhibition (FS) (1 μM test compound): <30%; % Inhibition (FS) (3 μM test compound): <30% |
| NC1=Nc2ccc(Oc3ccccc3)cc2CN1C(CC(=O)NC1CCCCC1)c1ccccc1 (stereo not drawn) [Compound 299] | <30 | <30 | <30 | – |
| NC(=O)c1ccccc1-c1ccc2c(c1)CN(CCNC(=O)C1CCCCC1)C(N)=N2 [Compound 543] | <30 | <30 | <30 | – |
| Cc1cccc(Nc2ccc3c(c2)CN(Cc2cccc(C(=O)N(C)C4CCCCC4)c2)C(N)=N3)c1 [Compound 435] | <30 | <30 | 85 | – |
| CC(=O)Nc1cccc(Oc2ccc3c(c2)CN(Cc2cccc(C(=O)N(C)C4CCCCC4)c2)C(N)=N3)c1 [Compound 229] | <30 | 35 | <30 | – |
| Cc1ccccc1-c1ccc2c(c1)CN(CCNC(=O)CC(C)C(F)(F)F)C(N)=N2 (stereo not drawn) [Compound 679] | – | – | – | % Inhibition (FS) (0.3 μM test compound): 78%; % Inhibition (FS) (1 μM test compound): 99%; % Inhibition (FS) (3 μM test compound): 103% |
| CC(C)(C)OC(=O)NCC(C1CCCCC1)N1Cc2cc(Oc3ccccc3)ccc2N=C1N (stereo not drawn) [Compound 257] | 67 | 105 | 111 | – |
| CN(C(=O)c1ccccc1CN1Cc2cc(Oc3ccccc3)ccc2N=C1N)C1CCCCC1 [Compound 463] | <30 | <30 | <30 | – |
| CN(CC(=O)O)C(=O)CCC(C1CCCCC1)N1Cc2cc(Oc3ccccc3)ccc2N=C1N (stereo not drawn) [Compound 767] | – | – | – | % Inhibition (FS) (0.3 μM test compound): <30%; % Inhibition (FS) (1 μM test compound): 71%; % Inhibition (FS) (3 μM test compound): 106% |
| CC(C)C(CC(=O)NC1C2CC3CC(C2)CC1C3)N1Cc2cc(Oc3ccccc3)ccc2N=C1N (stereo not drawn) [Compound 402] | <30 | 53 | 99 | – |

| SMILES | % Inhibition (FS) 0.3 μM (0.3 μM test compound) [%] | % Inhibition (FS) 1 μM (1 μM test compound) [%] | % Inhibition (FS) 3 μM (3 μM test compound) [%] | other results |
| --- | --- | --- | --- | --- |
| COC1CCCC(C(=O)NCCN2Cc3cc(-c4ccccc4C)ccc3N=C2N)C1 (stereo not drawn) [Compound 696] | – | – | – | % Inhibition (FS) (0.3 μM test compound): <30%; % Inhibition (FS) (1 μM test compound): 72%; % Inhibition (FS) (3 μM test compound): 104% |
| CCCC(=O)NCCN1Cc2cc(Br)ccc2N=C1N [Compound 808] | – | – | – | inhibition at 0.3 µM (0.3 μM test compound, read-out: % Inhibition (FS)): < 30%; inhibition at 1 µM (1 μM test compound, read-out: % Inhibition (FS)): < 30%; inhibition at 3 µM (3 μM test compound, read-out: % Inhibition (FS)): < 30% |
| NC1=Nc2ccc(Oc3ccccc3)cc2CN1C(CC(=O)NC1CCCCC1)C1CCCCC1 (stereo not drawn) [Compound 300] | <30 | <30 | 77 | – |
| Cc1cc(C)cc(Sc2ccc3c(c2)CN(Cc2cccc(C(=O)N(C)C4CCCCC4)c2)C(N)=N3)c1 [Compound 409] | <30 | <30 | 72 | – |
| CN(C(=O)c1cccc(CN2Cc3cc(Oc4ccccc4C(=O)N4CCCC4)ccc3N=C2N)c1)C1CCCCC1 [Compound 483] | <30 | <30 | <30 | – |
| NC1=Nc2ccc(Oc3ccccc3)cc2CN1Cc1cccc(C(=O)N2CCCC3CCCCC32)c1 (stereo not drawn) [Compound 212] | <30 | <30 | 32 | – |
| CN(C(=O)c1cccc(CN2Cc3cc(Oc4cccc(Oc5ccccc5)c4)ccc3N=C2N)c1)C1CCCCC1 [Compound 236] | <30 | 37 | 49 | – |
| CCCC(=O)NCCN1Cc2cc(-c3ccccc3F)ccc2N=C1N [Compound 645] | 67 | 57 | 91 | – |
| NC1=Nc2ccc(-c3ccccc3F)cc2CN1CCNC(=O)C1CCOCC1 [Compound 687] | – | – | – | % Inhibition (FS) (0.3 μM test compound): <30%; % Inhibition (FS) (1 μM test compound): 50%; % Inhibition (FS) (3 μM test compound): 87% |
| CCCCCOc1ccc2c(c1)CN(Cc1cccc(C(=O)N(C)C3CCCCC3)c1)C(N)=N2 [Compound 516] | <30 | <30 | <30 | – |
| CCCC=Cc1ccc2c(c1)CN(CCNC(=O)c1ccc(NC(C)=O)cc1)C(N)=N2 [Compound 592] | <30 | <30 | <30 | – |
| CN(C(=O)c1ccc2c(c1)C(N1Cc3cc(Oc4ccccc4)ccc3N=C1N)CC2)C1CCCCC1 (stereo not drawn) [Compound 145] | – | – | <30 | % Inhibition (FS) 10 μM (10 μM test compound): 37% |
| NC1=Nc2ccc(Oc3ccccc3)cc2CN1C(CNC(=O)C1CCCCC1)Cc1ccc(O)cc1 (stereo not drawn) [Compound 616] | – | – | <30 | – |
| NC1=Nc2ccc(Oc3ccccc3)cc2CN1C(CC(=O)NC1C2CC3CC(C2)CC1C3)C1CCCCC1 (stereo not drawn) [Compound 314] | <30 | 45 | 85 | – |
| NC1=Nc2ccc(Oc3ccccc3)cc2CN1C(CNC(=O)C1CCCCC1)Cc1ccc(O)cc1 (stereo not drawn) [Compound 614] | <30 | <30 | <30 | – |
| CC1CCCCN1C(=O)CCCC(CCC(=O)N1CCCCC1C)N1Cc2cc(Oc3ccccc3)ccc2N=C1N (stereo not drawn) [Compound 504] | <30 | 31 | 96 | – |
| CCCC(CCC)C(=O)N1CCC(N2Cc3cc(Oc4ccccc4)ccc3N=C2N)CC1 [Compound 523] | <30 | <30 | 58 | – |
